Data reported in US7501397B2, “Helical peptidomimetics with enhanced activity” (The Brigham and Women's Hospital, Inc., priority 2004, dated 2009).
Read-outs that look alike come from different tables or passages of the source. Non-standard residues stand in square brackets, D forms with d. Residues, ends and D or L forms follow the SMILES beside them. *: point of attachment. Boc = CC(C)(C)OC(=O)*; Aib = CC(C)(N)C(=O)O; Bn = c1ccc(C*)cc1

Assays:
[1] = system: Aβ production in Chinese hamster ovary (CHO) cells stably transfected with human APP; assay: cell-based assay of total Aβ production in CHO cells stably transfected with human APP
Excerpt: Based on the helical model for the APP transmembrane domain, short peptides were designed to adopt a similar conformation that block γ-secretase activity. Judicious replacement of selected residues of short APP-derived peptides with 2-aminoisobutyric acid (Aib), a known helix-inducing amino acid (19, 20), provided peptides that, in principle, mimic the γ-secretase cleavage site on one face of the helix, with Aib residues on the other face. Aib-containing peptides were identified that inhibit Aβ production in APP-transfected cells with 50 percent inhibitory concentrations (IC50's) as low as 2 μM. […] The crystal structure of this compound has been determined, and the peptide is fully helical (19). In certain embodiments the compounds of the invention have structures that are based on the partial APP sequence Val-Gly-Gly-Val-Val-Ile-Ala-Thr-Val-Ile-Val-Ile (SEQ ID NO:12; see FIG. 1). Basing the structures of the compounds of the invention on the partial APP sequence could enhance in vivo specificity of the compounds.
The top set of peptidomimetics (SEQ ID NOs: 1-5) was designed considering the cleavage leading to Aβ42, and the bottom set (SEQ ID NOs: 6-10) was designed considering the cleavage site leading to Aβ40. IC50 is the concentration of compound that reduced production of total Aβ by 50% in a cell-based assay using Chinese hamster ovary (CHO) cells stably transfected with human APP.
Starting from the reference D-decapeptide having SEQ ID NO:10 (IC50=90 nM), the enantiomers of the helical peptide L-series were tested for inhibitory activity. […] This greater than 40-fold loss of activity compared to the cell-free assay may be due to the need to enter into and/or cross cell membranes or some susceptibility to metabolic degradation.

γ-secretase [2] = target: T1, γ-secretase (Homo sapiens, UniProt P49768); assay: cell-free γ-secretase assay using detergent-solubilized membranes from HeLa cells and a recombinant APP-based substrate; assay type: biochemical; set-up: detergent-solubilized membranes from HeLa cells; endogenous in cells; host or cells: HeLa cells (detergent-solubilized membranes)
Protocol: Compounds were tested in a γ-secretase assay using detergent-solubilized membranes from HeLa cells and a recombinant APP-based substrate (Table 2, 18). […] Moreover, the γ-secretase inhibition appears to show dependence on length.

γ-secretase [3] = target: T1, γ-secretase; details: photoaffinity labeling; Kornilova et al. 2005; cited from earlier work
γ-secretase [4] = target: T1, γ-secretase; set-up: detergent-solubilized membranes from HeLa cells; endogenous in cells; host or cells: HeLa cells (detergent-solubilized membranes); details: value from Ref. 22, cited from earlier work
[5] = CHO cells stably transfected with human APP, total Aβ, read-out: IC50 (concentration that reduced production of total Aβ by 50%)

CC[C@@H](C)[C@@H](NC(=O)[C@H](NC(=O)[C@H](NC(=O)C(C)(C)NC(=O)CNC(=O)[C@H](NC(=O)OC(C)(C)C)C(C)C)C(C)C)C(C)C)C(=O)NC(C)(C)C(=O)N[C@@H](C(=O)N[C@@H](C(=O)NC(C)(C)C(=O)N[C@@H](C(=O)N[C@@H](C(=O)NC(C)(C)C(=O)OC)[C@H](C)CC)C(C)C)C(C)C)[C@H](C)OCc1ccccc1 [SEQ ID NO:18 D-peptide, Boc-Val-Gly-Aib-Val-Val-Ile-Aib-Thr(OBz)-Val-Aib-Val-Ile-Aib-OMe] (Boc-[dV]G[Aib][dV][dV][dI][Aib][dT](Bn)[dV][Aib][dV][dI][Aib]-OMe)
IC50 ([1]; APP-transfected CHO cells, read-out: IC50, cell-based assay): 0.009 ± 0.001 µM
loss of activity in cell-based assay compared to the cell-free assay ([1]; cell-based vs cell-free IC50): greater than 40 fold
IC50, in words (γ-secretase [2]): subnanomolar
times more active than the other analogs of the D-series (γ-secretase [2]; D-series, cell-free assay): 100 times
IC50 (γ-secretase [2]; read-out: IC50, cell-free γ-secretase assay): 0.00014 µM

Ac-Val-Gly-Aib-Val-Val-Ile-Aib-Thr(OBz)-Val-Aib-Val-Val-Aib-NH2 (Ac-VG[Aib]VVI[Aib]XV[Aib]VV[Aib]-NH2; not fully specified (some residues); printed as Ac-Val-Gly-Aib-Val-Val-Ile-Aib-Thr(OBz)-Val-Aib-Val-Val-Aib-NH2) [SEQ ID NO:23 D-peptide]
site of interaction with γ-secretase (γ-secretase [3]): not only interact with the initial substrate-binding site but also extend into the active site

Boc-Ile-Ala-Thr(OBz)-Aib-Ile-Val-Aib-OMe [SEQ ID NO:2]
IC50 [1, 5]: 15 µM

Boc-Val-Gly-Aib-Val-Val-Ile-Aib-Thr(OBz)-Val-Aib-OMe [SEQ ID NO:10 L-peptide]
IC50 [1, 5]: 3 µM
IC50 (γ-secretase [4]; reference decapeptide, read-out: IC50, cell-free γ-secretase assay): 30 µM

Boc-Val-Val-Ile-Aib-Thr(OBz)-Val-Aib-OMe [SEQ ID NO:7]
IC50 [1, 5]: 6 µM

Boc-Val-Gly-Aib-Val-Val-Ile-Aib-Thr(OBz)-Val-Aib-OMe [SEQ ID NO:10 D-peptide]
IC50 (γ-secretase [4]; 50% inhibition of Aβ40 production, read-out: Cell-free Assay IC50): 0.09 µM
site of interaction with γ-secretase (γ-secretase [3]): interacts with the initial substrate-binding site, but not the active site

Boc-Gly-Aib-Val-Val-Ile-Aib-Thr(OBz)-Val-Aib-OMe [SEQ ID NO:9]
IC50 [1, 5]: 3 µM

Boc-Gly-Val-Aib-Ile-Ala-Thr(OBz)-Aib-Ile-Val-Aib-OMe [SEQ ID NO:5]
IC50 [1, 5]: 5 µM

Boc-Aib-Val-Val-Ile-Aib-Thr(OBz)-Val-Aib-OMe [SEQ ID NO:8]
IC50 [1, 5]: 6 µM

Boc-Val-Aib-Ile-Ala-Thr(OBz)-Aib-Ile-Val-Aib-OMe [SEQ ID NO:4]
IC50 [1, 5]: 2 µM
